Laboratory results published in article PMC6968488, “In vitro and in vivo evaluation of didymin cyclodextrin inclusion complexes: characterization and chemosensitization activity” (Drug Delivery, 2019).
Values after ≈ are worked out from the molar mass of the structure shown. Where two headings read alike, the source gives them in different places.

Tests used:
MCF-7/ADR cells [1] = experiment: Intracellular uptake study of DOX; assay type: cell-based; conditions: DOX 10 μM, 4 h, fluorescence microscopy and quantitative analysis
Procedure: The effect of didymin on the intracellular uptake of the P-gp substrate was conducted as previously reported (Dai et al., [2016]; Yao et al., [2019]). Briefly, MCF-7/ADR cells were seeded in a 6-well plate at 4 × 10^5 cell/mL overnight before the experiment. Then the cancer cells were incubated with DOX (10 μM) at a concentration with or without didymin formulations for 4 h. Then, the treated cells were washed with ice-cold PBS three times and recorded under fluorescence microscopy (Nikon, Tokyo, Japan). In an independent study, after treatment, the cells were washed with ice-cold PBS and then lysed. Then acetonitrile was added into the cell lysate to extract the didymin via protein precipitation (PP)/extraction method. The didymin concentration in the supernatant was determined by the previously validated HPLC method.

[2] = MTT cytotoxicity assay on healthy cells; assay type: cell-based; conditions: all tested concentrations 10 μM∼200 μM, read-out: cell viability
Procedure: (§1) The cytotoxicity of didymin on various cell lines was examined by MTT assay as previously reported (Yao et al., [2019]). The didymin solution was prepared by dissolving in DMSO at different concentrations and diluted with the fresh medium right before the treatment. The didymin inclusion complex was dispersed in the sterilized water and then diluted with the fresh medium before treatment. Experiments involving healthy cells (HUVEC, H9C2, and PC12) by culturing 100 μL cell suspension (5 × 10^4 cell/mL) in 96 well plates. After 24 h incubation, the didymin or didymin inclusion complexes contained medium was used to replace the overnight medium and cultured for 48 h, respectively. After that, the MTT solution at the concentration of 5 mg/mL was added to each well. After 4 h incubation, the medium was removed, and the MTT formazan was dissolved by DMSO. Then the DMSO solution is measured using a microplate reader with the absorbance wavelength at 570 nm. The untreated cells were used as control. The cell viability (%) was calculated as follows, cell viability (%) = Asample/Acontrol ×100.

MCF-7/ADR cells [3] = experiment: MTT cytotoxicity / chemosensitivity assay, resistant tumor cells; assay type: cell-based
Procedure: as §1
(§2) The MCF-7 and MCF-7/ADR cells cytotoxicity of the combination of didymin and doxorubicin were evaluated by MTT assay, as mentioned above.

P-gp transporter = target: T1, P-gp transporter (Homo sapiens, UniProt P08183); experiment: Calcein-AM extrusion assay; assay type: cell-based; conditions: MCF-7/ADR, 30 min pre-incubation then calcein-AM 30 min
T1 construct: endogenous in cells; host or cells: MCF-7/ADR cells
T1 sequence (P08183 whole entry): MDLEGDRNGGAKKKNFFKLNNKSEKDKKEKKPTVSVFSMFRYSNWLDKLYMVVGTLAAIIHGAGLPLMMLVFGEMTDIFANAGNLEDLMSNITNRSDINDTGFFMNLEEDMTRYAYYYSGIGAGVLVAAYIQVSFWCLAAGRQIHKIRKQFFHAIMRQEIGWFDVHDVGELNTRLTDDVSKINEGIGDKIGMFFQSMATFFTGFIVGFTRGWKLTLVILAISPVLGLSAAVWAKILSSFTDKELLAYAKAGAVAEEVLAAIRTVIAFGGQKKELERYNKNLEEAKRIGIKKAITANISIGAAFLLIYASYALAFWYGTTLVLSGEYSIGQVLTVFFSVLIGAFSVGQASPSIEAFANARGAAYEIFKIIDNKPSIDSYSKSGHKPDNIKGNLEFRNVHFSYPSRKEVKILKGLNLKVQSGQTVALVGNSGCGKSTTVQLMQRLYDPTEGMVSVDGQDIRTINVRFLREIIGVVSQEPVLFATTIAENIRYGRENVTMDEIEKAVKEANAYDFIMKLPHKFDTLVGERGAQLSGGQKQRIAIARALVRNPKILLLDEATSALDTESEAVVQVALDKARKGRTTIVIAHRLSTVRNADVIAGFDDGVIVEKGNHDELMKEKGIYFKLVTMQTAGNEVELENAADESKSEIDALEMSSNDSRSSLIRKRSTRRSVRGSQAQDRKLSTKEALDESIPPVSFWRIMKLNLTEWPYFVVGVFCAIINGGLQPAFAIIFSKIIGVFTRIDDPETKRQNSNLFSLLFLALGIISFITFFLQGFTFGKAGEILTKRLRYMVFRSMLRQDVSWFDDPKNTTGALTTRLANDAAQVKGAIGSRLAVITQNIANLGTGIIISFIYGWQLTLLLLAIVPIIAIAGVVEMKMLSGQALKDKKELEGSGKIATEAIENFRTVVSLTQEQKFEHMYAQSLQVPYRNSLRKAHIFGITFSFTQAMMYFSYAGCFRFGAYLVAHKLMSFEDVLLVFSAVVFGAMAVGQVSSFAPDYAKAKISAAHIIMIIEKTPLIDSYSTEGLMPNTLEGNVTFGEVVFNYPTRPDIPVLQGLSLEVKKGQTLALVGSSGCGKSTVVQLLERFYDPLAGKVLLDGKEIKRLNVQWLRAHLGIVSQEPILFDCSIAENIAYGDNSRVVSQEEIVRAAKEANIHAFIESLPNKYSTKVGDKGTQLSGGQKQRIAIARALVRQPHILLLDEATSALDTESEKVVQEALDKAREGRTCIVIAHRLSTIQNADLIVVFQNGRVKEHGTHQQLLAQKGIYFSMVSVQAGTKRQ
Procedure: The effect of didymin and its inclusion complex on the efflux function of P-gp transporter was studied using calcein-AM extrusion assay as reported (Dai et al., [2016]). Briefly, MCF-7/ADR cells were seeded in a 6-well plate at 2 × 10^5 cell/mL overnight before the experiment. The cancer cell was incubated with verapamil or didymin formulations for 30 min and then treated with calcein-AM for another 30 min. Then, the treated cells were washed with ice-cold PBS three times and recorded under fluorescence microscopy. In an independent study, after treatment, the cells were washed, trypsinized, and collected by centrifuge. The collected cells were then washed with PBS and analyzed by flow cytometry (BD Bioscience, Franklin Lakes, NJ, USA). The data was collected with 1 × 10^5 events counter per samples

Acute toxicity study = assay type: in vivo, BALB/c mice; conditions: mice, single oral dose 250 mg/kg
Procedure: An acute toxicity test was conducted as previously reported (Kandhare et al., [2016]). In brief, the BALB/c mice weighing about 18–22 g were administrated of didymin at a single dose of 250 mg/kg using oral gastric gavages. […] On 15th day animals were sacrificed, and the major organs were collected, fixed, and sliced for H&E staining.

MCF-7 cells = experiment: MTT cytotoxicity / chemosensitivity assay, sensitive tumor cells; assay type: cell-based; conditions: MCF-7, without DOX, tested concentrations
Procedure: as §1, §2

[4] = Solubility study of didymin in different media (HPLC); assay type: physicochemical; conditions: for solubility at 72 h: thermodynamic from solid, room temperature, 72 h stirring
Procedure: Add excess didymin into a different medium (water, ethanol, methanol, 1% β-CD, and 1% HP-β-CD), and keep stirring at room temperature for 72 h. After that, 1.5 mL of the suspension was taken for centrifugation to take the supernatant. After filtering with a […] filter membrane (Shanghai Boguang Biotechnology Co., Ltd, Shanghai, China), the concentration of each solution was measured by the HPLC method.
An analytical HPLC method was developed to determine the concentration of didymin. The chromatographic conditions are: Agilent HC-C18 column (4.6 mm × 250 mm, 5 μm) (Agilent Technologies, Inc., Santa Clara, CA, USA), the mobile phase was phosphate buffer (pH 6.8)–methanol (45:55), the detection wavelength was 283 nm, the column temperature was 25 °C, and the flow rate was 1.0 mL/min, and. The samples were filtered (0.45 μm) and deaerated before use.

[5] = Pharmacokinetic study after oral administration; assay type: in vivo; conditions: male, rat, plasma, SD rats, 25 mg/kg
Procedure: All animal experiments were carried out under the Guide for Care and Use of Laboratory Animals and approved by the approval of the Ethics Committee of Wenzhou Medical University. Male SD rats ([…], Shanghai Laboratory Animal Center, China) weighing 220–250 g (n = 6 per group) were studied in the pharmacokinetic study. Free didymin and two types of didymin inclusion complexes (25 mg/kg, respectively) were orally administered with sterilized water. Then blood samples were collected from the orbit venous plexus at predetermined time intervals. The blood samples were then centrifuged at 15000 r/min for 10 min, then dried at 40 °C under nitrogen flow to solid-phase extraction. Methanol was added to dissolve the residue. Then the concentration of didymin in plasma was determined by HPLC methods and calculated the pharmacokinetic parameters.

MCF-7/ADR tumor = experiment: In vivo antitumor efficacy in mice bearing resistant tumors; design: species or system BALB/c nude mice; conditions: DOX 5 mg/kg/3 days i.p.; Didymin/HP-β-CD 20 mg/kg/day i.g.; 14 days
Procedure: To further investigate the chemosensitivity of […] inclusion complex, female BALB/c nude mice (5-6 weeks old, Shanghai Laboratory Animal Center, China) were injected subcutaneously with MCF-7/ADR cells (10^7 cells/per mouse). […] (1) Control group, 0.9% saline (0.2 mL/kg/day, i.p.); (2) DOX group, DOX (5 mg/kg/3 days, i.p.); (3) DOX + […] group, DOX (5 mg/kg/3 days, […] was given by oral gavage (i.g.) while DOX was intraperitoneal injected (i.p.). DOX injection was performed 30 min after the […] by gavage. The mouse weight and tumor volume were measured every day. The tumor volume was obtained using the formula (Yao et al., [2019]). On day 14, the mice were sacrificed, and tumor tissues were collected, fixed and sliced for pathological examination (H&E staining, Ki67 immunohistochemical staining, and TUNEL assay).

COc1ccc(C2CC(=O)c3c(O)cc(OC4OC(COC5OC(C)C(O)C(O)C5O)C(O)C(O)C4O)cc3O2)cc1 (stereo not drawn) [didymin, isosakuranetin-7-beta-rutinoside]
DOX intracellular accumulation (MCF-7/ADR cells [1]): increase the DOX intracellular accumulation
viability at 48 h ([2]; human, HUVEC cells): > 90%
viability at 48 h ([2]; rat, H9C2 cells, H9C2, 48 h): > 90%
viability at 48 h ([2]; rat, PC12 cells, PC12, 48 h): > 90%
cytotoxicity alone (MCF-7/ADR cells [3]; without DOX, tested concentrations): did not exert toxicity on cancer cells
P-gp efflux function (intracellular calcein fluorescence) (P-gp transporter): significantly inhibit the function of P-gp transporter
abnormal behaviors and weight change in the observation period (Acute toxicity study; 14 days): did not show any abnormal behaviors and weights change
H&E staining of major organs (Acute toxicity study; after 14 days): no signs of any toxicity
cytotoxicity alone (MCF-7 cells): did not exert toxicity on cancer cells
solubility at 72 h ([4]; aqueous with cosolvent or surfactant or cyclodextrin, 1% HP-β-CD solution, read-out: solubility in 1% HP-β-CD solution): 735 ± 370 µg/mL (≈ 1240 µM)
solubility at 72 h ([4]; organic solvent or mixture, ethanol, read-out: solubility in ethanol): 1240 ± 720 µg/mL (≈ 2090 µM)
solubility at 72 h ([4]; organic solvent or mixture, methanol, read-out: solubility in methanol): 11200 ± 1190 µg/mL (≈ 18900 µM)
increase of aqueous solubility compared to free didymin ([4]; presence of HP-β-CD): 6.9 times
increase of aqueous solubility compared to free didymin ([4]; presence of β-CD): 4.7 times
solubility at 72 h ([4]; water, read-out: solubility in water): 107 ± 120 µg/mL (≈ 180 µM)
Cmax [5]: 2770 ng/mL
Tmax [5]: 11.4 ± 3 min
half-life [5]: 105 ± 9.6 min
AUC(0-t) ([5]; read-out: AUC0–12 h): 5910 ng·h/mL

COc1cccc2c1C(=O)c1c(O)c3c(c(O)c1C2=O)C[C@@](O)(C(=O)CO)C[C@@H]3O[C@H]1C[C@H](N)[C@H](O)[C@H](C)O1 [DOX, doxorubicin, reference compound]
IC50 (MCF-7/ADR cells [3]; Homo sapiens, NCI/ADR-RES, free DOX): > 20 µM
tumor growth inhibition (MCF-7/ADR tumor): 34%
